From patent publication US20180296559A1, “TREATMENT OF AIRWAY SMOOTH MUSCLE DYSFUNCTION” (priority 2016, published 2018)

Tests used:
[1] = tested on: tracheal airway smooth muscle strips; assay: Airway smooth muscle strip isometric force generation following acetylcholine; type: cell-based, pig
Excerpt: FIG. 2. NVP-TAE684 decreases airway smooth muscle force generation. Wild-type airway smooth muscle strip isometric force generation following acetylecholine treatment in muscle strips pretreated with control vehicle (DMSO, black circles) or NVP-TAE684 (grey circles) (n=5 animals per group). Data are shown as mean values with SEM and are fitted with a four-parameter logistic regression algorithm (solid line).
Airway smooth muscle tissue and cells. Trachea from newborn WT […] or CFTR^−/− pigs was excised and placed in modified Krebs Solution containing (mM): 120.8 NaCl, 5.9 KCl, 0.2 CaCl2, 1.2 MgCl2, 1.2 NaH2PO4, 2 NaHCO3, 11 d-glucose, and 10 HEPES, pH 7.4. The trachealis muscle was dissected by removing the cartilage and epithelial layers. For force measurements, strips of trachealis smooth muscle were hung in a tissue perfusion system (Radnoti LLC, Monrovia, Calif.). For cell isolation, the remaining medial layers were minced and digested using a papain dissociation system (Worthington, Lakewood, N.J.) based upon previous studies (10). The minced smooth muscle was suspended in Earle's balanced salt solution (EBSS) containing papain (10 U/ml) and DNase (1000 U/ml) and incubated at 37° C. for 1 hr. Collagenase (0.5mg/m1) was added and after 1 hr the mixture triturated. Primary cells were grown to confluence in a 1:1 mixture of DMEM and Ham's F12 on fibrinogen-coated 6-well plates. All solutions contained 100 U/ml penicillin and 0.1 mg/ml streptomycin. Primary culture cells were allowed to grow for 8-10 d until confluent. […]
Measurement of airway smooth muscle force generation. […] The contractile activity was recorded with Grass isometric force transducers and amplifiers connected to a Biopac data acquisition system (Biopac Systems, Goleta, Calif.). […] The smooth muscle force from NVP-TAE684 or DMSO pretreated strips was determined by obtaining concentration-response curves to acetylcholine (10^−9 to 10^−2 M) in the muscle bath. […]

[2] = tested on: wild-type mice; assay: Morphologic analysis of histological sections of treated mice; type: in vivo
[3] = tested on: wild-type mice; assay: In vivo airway resistance following methacholine challenge; details: 100 μl of 5 mM, intraperitoneal, daily for 3 days, vs vehicle
Experimental: FIG. 3. In vivo treatment with NVP-TAE684 decreases cholinergic induced airway hyper-responsiveness. Mice were pretreated with control vehicle (DMSO, black circles) or NVP-TAE684 (grey circles) for 3 days (n=10 animals per group). Airway resistance following methacholine treatment was then determined. Data are shown as mean values with SEM and are fitted with a four-parameter logistic regression algorithm (solid line).
Measurement of in vivo airway resistance. WT mice were pretreated with either PYK2 inhibitor NVP-TAE684 (100 μl of 5 mM, 1% DMSO) or vehicle (1% DMSO) was given via intra-peritoneal injections daily for 3 days prior and including the day of pulmonary measurements. Mice were anesthetized with ketamine (50 or 100 mg/kg) and xylazine (0-10 mg/kg). Following tracheotomy, an 18-gauge cannula was inserted and securely tied with 4.0 braided silk. The animals were then mechanically ventilated with a computer-controlled small-animal ventilator (FlexiVent, SCIREQ, Montreal, Quebec) using a tidal volume of 8 mL/kg at a rate of 180 breaths/min and PEEP of 3.5 cm H2O. Pulmonary resistance was measured by the computer controlled ventilator by interrupting ventilation and imposing broadband low-frequency oscillatory waveforms and then resuming ventilation. […]

[4] = tested on: porcine precision cut lung slices; assay: Airway contraction in precision cut lung slices in response to methacholine; type: cell-based; details: WT newborn pig lung slices pretreated overnight with 10 μM compound vs DMSO
Excerpt: FIG. 1. NVP-TAE684 decreases airway contraction in porcine precision cut lung slices. Percent airway lumen area contraction in response to methacholine in porcine precision cut lung slices pretreated with control vehicle (DMSO, black circles) or NVP-TAE684 (grey circles), normalized to maximal contractile response (n=6 animals per group). Data are shown as mean values with SEM and are fitted with a four-parameter logistic regression algorithm (solid line).
Precision cut lung slice preparation. Precision cut lung slices were isolated as previously described (11) from wild type newborn pigs. Lung slice culture media consisted of Dulbecco's Modified Eagle Medium (Gibco, Big Cabin, Okla.), 10% fetal bovine serum (Gibco, Big Cabin, Okla.), 1% penicillin-streptomycin (5,000 U/mL, Gibco, Big Cabin, Okla.), and 0.1% gentamicin (50 mg/mL, Gibco, Big Cabin, Okla.).
For the porcine lung slice studies, the tracheal bronchus from collected tracheal lobes was cannulated with a 24 G IV catheter (BD Medical) and a tight seal was created using suture. The tracheal lobe was instilled with approximately 10 mL of 2% UltraPure Low Melting Point agarose (Invitrogen, Carlsbad, Calif.) solution and cooled at −20° C. for 30 min. […] For all PCLS experiments, maximal airway contraction was analyzed for each dose by lumen area measurements performed in ImageJ (NIH). […]

[5] = biological target: Recombinant human PYK2 (Homo sapiens, UniProt Q14289); assay: ADP-based phosphatase-coupled kinase assay (malachite green); type: biochemical; details: 10, 25, or 100 μM compound vs DMSO; PYK2 0.5 and 2 μg/ml
Chain of Recombinant human PYK2 (Q14289 whole entry): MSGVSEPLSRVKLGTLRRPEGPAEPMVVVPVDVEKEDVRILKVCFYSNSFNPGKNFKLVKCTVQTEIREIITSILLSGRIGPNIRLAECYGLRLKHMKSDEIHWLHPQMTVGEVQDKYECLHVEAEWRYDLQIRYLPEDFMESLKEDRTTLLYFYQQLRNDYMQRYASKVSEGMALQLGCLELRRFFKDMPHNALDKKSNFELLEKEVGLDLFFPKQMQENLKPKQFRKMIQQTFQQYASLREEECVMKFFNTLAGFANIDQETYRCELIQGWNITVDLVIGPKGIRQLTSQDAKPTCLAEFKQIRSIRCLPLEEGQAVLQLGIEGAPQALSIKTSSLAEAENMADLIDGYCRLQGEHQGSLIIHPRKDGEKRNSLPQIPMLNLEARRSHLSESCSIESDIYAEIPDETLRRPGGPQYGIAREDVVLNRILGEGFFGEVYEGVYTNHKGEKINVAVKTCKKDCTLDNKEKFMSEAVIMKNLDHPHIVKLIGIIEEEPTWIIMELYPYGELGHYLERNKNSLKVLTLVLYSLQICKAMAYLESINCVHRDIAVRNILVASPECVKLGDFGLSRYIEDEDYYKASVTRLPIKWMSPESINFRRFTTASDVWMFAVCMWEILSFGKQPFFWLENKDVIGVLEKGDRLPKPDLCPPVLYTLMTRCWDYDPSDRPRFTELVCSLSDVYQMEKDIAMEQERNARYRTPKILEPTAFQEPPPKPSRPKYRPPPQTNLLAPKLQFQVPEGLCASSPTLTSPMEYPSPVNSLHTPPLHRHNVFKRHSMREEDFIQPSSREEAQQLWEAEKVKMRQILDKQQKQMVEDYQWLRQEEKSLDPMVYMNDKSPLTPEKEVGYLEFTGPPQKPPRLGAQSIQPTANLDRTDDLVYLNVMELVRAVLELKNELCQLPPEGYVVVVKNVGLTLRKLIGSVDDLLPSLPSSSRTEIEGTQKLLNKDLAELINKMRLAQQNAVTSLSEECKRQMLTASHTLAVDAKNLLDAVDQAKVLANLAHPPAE
Experimental: FIG. 4. Recombinant human PYK2 was treated with either DMSO or 10, 25, or 100 μM ceritinib. PYK2 activity was measured by using an ADP-based phosphatase-coupled kinase assay. ADP from PYK2 activity releases an inorganic phosphate via a coupling enzyme and is detected using malachite green reagent. The amount of inorganic phosphate released is proportional to the amount of ADP generated during the kinase reaction. Two concentrations of PYK2 (0.5 and 2 μg/ml) were tested.

[6] = pretreated with 10 μM compound vs DMSO

Row | Compound | maximal force production ([1]; newborn WT pig tracheal muscle strips pretreated with 10 μM compound, acetylcholine dose response) | force generation in tracheal smooth muscle strips across all doses of acetylcholine [1, 6] | median effective concentrations of acetylcholine, compound-pretreated vs DMSO-pretreated strips [1, 6] | drug-induced toxicity in histological sections of heart, kidney, and liver ([2]; mouse, in vivo) | changes in epithelia, cartilage or airway smooth muscle layers (lung parenchyma, conducting airways, trachea sections) ([2]; treated mice vs vehicle control mice) | respiratory response to inhaled methacholine (airway resistance) [3] | airway narrowing in response to increasing dosages of methacholine, measured by luminal area [4] | PYK-2 activity [5]
1 | COc1cc(N2CCC(N3CCN(C)CC3)CC2)ccc1Nc1ncc(Cl)c(Nc2ccccc2S(=O)(=O)C(C)C)n1 [NVP-TAE684] | 40 mN | decreased force generation | no significant differences | no evidence of drug-induced toxicity | no significant changes | significantly decreased | decreased the airway narrowing | 
2 | Cc1cc(Nc2ncc(Cl)c(Nc3ccccc3S(=O)(=O)C(C)C)n2)c(OC(C)C)cc1C1CCNCC1 [ceritinib] |  |  |  |  |  |  |  | dose-dependent decrease
